# Results: patent US4840941A, “Method for inhibiting infection of human T-cells” (Kabushiki Kaisha Ueno Seiyaku Oyo Kenkyujo, priority 1986, dated 1989)
# Tests used:
# HTLV-III [1] = assay: Anti-AIDS virus activity, MT-4 cells infected with HTLV-III, 3 days; type: cell-based; conditions: increasing dose
# Protocol: (§1) To MT-4 cells (30×10^4 /ml) cultured in RPMI-1640 medium containing 10% bovine serum, was inoculated HTLV-III, and the suspension was incubated at 37° C. for 1 hour to cause the adsorption of the virus. The cell:virus ratio was 500:1. The cells were then washed, and cultured with or without various doses of the test substances (same as those of Example 1) at 37° C. under 5% CO2 for 3 days, after which cell growth, viability, and percentage of infected cells were recorded. The infected cells were distinguished from the uninfected cells by indirect immuno-fluorescence method. Thus; the cultured cells were fixed with cold methanol on a slide glass, reacted with antibody to the HTLV-III-specific antigens, and further with the secondary antibody (having fluorescent label). The results are shown in FIGS. 9-29, wherein, , and show the controls without virus; , and show the infection experiments with HTLV-III. The cell growth is indicated in number of cells, the viability (%) in number of viable cells×100/number of total cells, and the infected cell rate (%) in number of fluorescent-positive cells×100/number of total cells.
# Test substances were assayed for the anti-AIDS virus activity in the same manner as in Example 3 using cell culture. The test substances are the same as those used in Example 5. […]
# The anti-AIDS virus activity of heparin was evaluated in the same manner as in Example 3. […]
# HTLV-III [2] = assay: Anti-AIDS activity, infected cell rate of MT-4 cells infected with HTLV-III at 6th day; type: cell-based; conditions: for anti-AIDS virus activity: MT-4 cells, HTLV-III
# Protocol: as §1
# In order to examine the correlation between the anti-AIDS virus activity and the molecular structure (especially, molecular weight and S-content or number of sulfate group in this case) of various test substances including those used in Examples 1-7, the anti-AIDS activities were evaluated for the various naturally occurring polysaccharides, polysaccharides having sulfate group, mucopolysaccharides, mucopolysaccharide sulfate, and mucopolysaccharide polysulfate. Further, similar experiments were carried out with various other sulfates which were synthetically obtained. The experimental procedures employed are identical to that in preceding experiments. The cultured MT-4 cells were infected with HTLV-III and the inhibitory effects of various test subsutances on the infected cell rate (number of fluorescent cell×100/ total cell, %) were determined at 6th day.
# [3] = Acute toxicity (LD50) in mice; type: in vivo
# [4] = system: reverse transciptase of simian sarcoma virus; conditions: in vitro; Cancer Research, 38, 2401-2407; cited from earlier work
# [5] = system: DNA polymerase of phytohemagglutinin stimulated human lymphocytes; conditions: in vitro; Cancer Research, 38, 2401-2407; cited from earlier work
# [6] = system: disrupted HTLV-III virions as a crude reverse transcriptase; assay: Inhibition of reverse transcriptase activity (disrupted HTLV-III virions); type: biochemical; conditions: crude enzyme from HTLV-III virions
# [7] = system: reverse transcriptase (authentic sample) derived from Avian Myeloblastosis Virus; assay: Inhibition of reverse transcriptase activity (AMV); type: biochemical; conditions: AMV enzyme; 1, 0.1 and 0.01 μg/ml
# Protocol: Test substances were assayed for inhibition against the enzyme activity of reverse transcriptase (authentic sample) derived from Avian Myeloblastosis Virus (abbrev. AMV), a kind of retrovirus. Five microliters of […] (template RNA), 4 μl of (dT)12-18 (primer DNA), and 1 μl of water were mixed with 5 μl of 0.5M Tris-CHl (pH 8.4) including 0.1% triton X-100, 5 μl of […], 5 μl of 20 mM-DDT, 5 μl of water, and [^3 H]-TTP (tritium labeled thymidine triphosphate). To this mixture, test substances in solutions (final concentrations: 1, 0.1, and 0.01 μg/ml, 5 μl) or buffer solutions (control, 5 μl) at various doses were added. Then, 5 μl (one unit) of the authentic reverse transcriptase derived from AMV was added and the reaction mixture was incubated at 37° C. for 30 minutes. The reaction was stopped by addition of trichloroacetic acid, and after filtering the reaction mixture, the radioactivity of the polymerized (^3 H-T)n retained on the filter was measured using a liquid scintillation counter. As the test substances, sodium dextran sulfate (molecular weight: 5000), same (molecular weight: 8000), same (molecular weight: 500000), fucoidin, κ-carrageenan, λ-carrageenan, and .iota.-carrageenan were used.
# The effects of the test substances on the reverse transcriptase activity of AMV were evaluated by the method described in Example 1.
# [8] = 10 μg/ml, 6th day, control 100%
# [9] = 100 μg/ml, 6th day, control 100%
Substance,cell growth and viability of MT-4 cells infected with HTLV-III (HTLV-III [1]),infected cell rate (HTLV-III [1]; indirect immunofluorescence),Infected cell (%) (HTLV-III [2]; [8]),Infected cell (%) (HTLV-III [2]; [9]),anti-AIDS virus activity (HTLV-III [2]; 6th day),acute toxicity (LD50) ([3]; intravenously),inhibition of reverse transcriptase of simian sarcoma virus [4],inhibition of DNA polymerase of phytohemagglutinin stimulated human lymphocytes [5],reverse transcriptase inhibitory effect [6],"Infected cell (%) (HTLV-III [2]; 10 μg/ml, 6th day; control 100%; S-content 17-20), 8640 min)",acute toxicity (LD50) ([3]; orally),reverse transcriptase inhibition activity [7]
Heparin,the number of cells and viability were maintained to that of control,less susceptible to the viral infection,41%,1%,particularly strong anti-AIDS virus activities,"1,500-2,000 mg/kg",inhibit,inhibit,–,–,–,–
"Sodium dextran sulfate [Sodium dextran sulfate (molecular weight: 7000-8000, S-conte]",–,–,–,0%,–,"4,500 mg/kg",–,–,has an inhibitory effect,1%,"21,000 mg/kg",–
Chondroitin polysulfate,–,–,3%,1%,particularly strong anti-AIDS virus activities,–,–,–,–,–,–,stronger activity than the natural substances
